In brackets after ≈: the same amount, converted by molar mass.
Conditions: 25 °C

Q: With `CCOC(=O)CCCC(=O)OCC` as the compound, how does the solubility read?
A: 46.8 mM (≈ 8810 µg/mL)

Q: For `C=COC1CC1`, which solubility is on record?
A: 79.4 mM (≈ 6680 µg/mL)

Q: Which solubility does the source give for `Cc1ccc(Br)cc1` here?
A: 0.643 mM (≈ 110 µg/mL)

Q: For `CC1CCOC1` (stereo unspecified), which solubility is on record?
A: 1230 mM (≈ 106000 µg/mL)

Q: With `CC(C)c1ccccc1Br` as the compound, how does the solubility read?
A: 0.0646 mM (≈ 12.9 µg/mL)

Q: For `Sc1ccccc1`, which solubility is on record?
A: 7.58 mM (≈ 835 µg/mL)

Q: With `ICCI` as the compound, how does the solubility read?
A: 0.606 mM (≈ 171 µg/mL)

Q: For `CCC(C)OC` (stereo unspecified), which solubility is on record?
A: 186 mM (≈ 16400 µg/mL)

Q: Which solubility does the source give for `Brc1ccccc1Br` here?
A: 0.316 mM (≈ 74.6 µg/mL)

Q: For `Cc1c2ccccc2cc2c1cc(F)c1ccccc12`, which solubility is on record?
A: 4.9e-05 mM (≈ 0.0127 µg/mL)

Q: For `Brc1cc(Br)cc(Br)c1`, which solubility is on record?
A: 0.00251 mM (≈ 0.79 µg/mL)

Q: With `CC(C)[C@@H](C)CO` as the compound, how does the solubility read?
A: 427 mM (≈ 43600 µg/mL)

Q: With `CCS` as the compound, how does the solubility read?
A: 166 mM (≈ 10300 µg/mL)

Q: With `CCc1ccccc1Br` as the compound, how does the solubility read?
A: 0.214 mM (≈ 39.5 µg/mL)

Q: With `CCCC(C)(C)CO` as the compound, how does the solubility read?
A: 33.1 mM (≈ 3850 µg/mL)

Q: Which solubility does the source give for `CC(C)OC=O` here?
A: 235 mM (≈ 20700 µg/mL)

Reference: the OPERA property sets (Mansouri et al. 2018)
